This passage reports IC50 results from PubChem BioAssay AID651891 (Broad Institute, 2012).

As a reminder, the IC50 is the concentration needed to halve the response being measured.

The source made the active and inactive calls.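 The calls were made as follows: active = IC50 below three times the IC50 of the reference antileishmanial control drug; inactive = the rest.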

In the experiment the test system is L. donovani axenic amastigotes, Alamar blue, 72 h. Description: L. donovani amastigote growth inhibition, dose response, axenic amastigotes, plate reader, cherry pick (AID 651891).

In the case of `C[C@@H]1CN([C@@H](C)CO)C(=O)c2cccc(NC(=O)c3ccncc3)c2O[C@H]1CN(C)Cc1ccc(Oc2ccccc2)cc1`, the IC50 is 21.2 µM (inactive).
